The values that follow come from US20100068181A1, “PYRROLO [3, 2-A] PYRIDINE DERIVATIVES FOR INHIBITING KSP KINESIN ACTIVITY” (Schering Corporation, priority 2006, published 2010).

Some results are limits rather than exact numbers.

In this experiment the target is T1, KSP (Homo sapiens, UniProt P52732).
T1 sequence (P52732 1-1056): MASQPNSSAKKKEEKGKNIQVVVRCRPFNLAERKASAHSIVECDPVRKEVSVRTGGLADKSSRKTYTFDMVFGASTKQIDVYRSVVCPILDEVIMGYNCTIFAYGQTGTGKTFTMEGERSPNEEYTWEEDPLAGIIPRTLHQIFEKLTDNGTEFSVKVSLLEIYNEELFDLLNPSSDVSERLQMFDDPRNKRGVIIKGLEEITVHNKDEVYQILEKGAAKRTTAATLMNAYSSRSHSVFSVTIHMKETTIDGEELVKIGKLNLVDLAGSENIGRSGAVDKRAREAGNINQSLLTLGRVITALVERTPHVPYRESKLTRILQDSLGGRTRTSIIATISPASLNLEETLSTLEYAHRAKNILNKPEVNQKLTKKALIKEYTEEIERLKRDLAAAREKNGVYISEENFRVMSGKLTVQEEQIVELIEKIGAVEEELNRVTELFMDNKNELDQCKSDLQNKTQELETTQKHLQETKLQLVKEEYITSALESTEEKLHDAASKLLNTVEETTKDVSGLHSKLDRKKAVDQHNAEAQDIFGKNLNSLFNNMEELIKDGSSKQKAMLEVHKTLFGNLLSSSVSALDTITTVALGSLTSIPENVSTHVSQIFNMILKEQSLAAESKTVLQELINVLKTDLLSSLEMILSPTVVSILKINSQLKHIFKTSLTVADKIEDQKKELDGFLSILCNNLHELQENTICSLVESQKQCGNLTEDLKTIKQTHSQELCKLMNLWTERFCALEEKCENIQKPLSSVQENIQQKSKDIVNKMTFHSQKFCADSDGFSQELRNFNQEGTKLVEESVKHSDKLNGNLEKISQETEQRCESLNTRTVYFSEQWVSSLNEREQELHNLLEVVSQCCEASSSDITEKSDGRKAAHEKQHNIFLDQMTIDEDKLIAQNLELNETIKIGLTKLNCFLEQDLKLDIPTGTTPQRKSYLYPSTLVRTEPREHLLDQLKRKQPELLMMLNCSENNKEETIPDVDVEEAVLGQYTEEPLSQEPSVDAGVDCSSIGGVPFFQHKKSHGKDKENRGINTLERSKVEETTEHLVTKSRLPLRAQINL
In words: KSP inhibitory activity, end-point assay. In kind it is biochemical. The settings on record: KSP inhibitory activity based on end-point assay; read-out: IC50 Rating. An excerpt: The inhibitory activity of the present compounds towards KSP may be assayed by methods known in the art, for example, by using the methods as described in the examples.
Regarding `CC(=O)c1cc2nc3c(cc2[nH]1)CC(C(C)(C)C)CC3` (centres unmarked) [Example 30], the IC50 was 0.1 to 1 µM.
Under `CC(=NO)c1cc2nc3c(cc2[nH]1)CC(C(C)(C)C)CC3` (centres unmarked) [Example 31] stands over 10 µM.
On to `CC(C)(C)C1CCc2nc3cc(COC(=O)c4ccccc4)[nH]c3cc2C1` (centres unmarked) [Example 32], for which the IC50 is over 10 µM.
With `CC(C)(C)C1CCc2nc3cc(CC#N)[nH]c3cc2C1` (centres unmarked) [Example 33] the figure was 1 to 10 µM; with `CCOC(=O)c1[nH]c2cc3c(nc2c1Br)CCC(C(C)(C)C)C3` (centres unmarked) [Example 34], over 10 µM.
`CC(C)(C)C1CCc2nc3c(Br)c(C(N)=O)[nH]c3cc2C1` (centres unmarked) [Example 35]: the IC50 is over 10 µM.
With `Cc1[nH]c2cc3c(nc2c1CCO)CCC(C(C)(C)C)C3` (centres unmarked) [Example 36] the figure was over 10 µM; with `CC(C)(C)C1CCc2nc3c(CCO)c(CO)[nH]c3cc2C1` (centres unmarked) [Example 37], over 10 µM.
With `CCOC(=O)c1[nH]c2cc3c(nc2c1/C=C/C(=O)OC)CCC(C(C)(C)C)C3` (centres unmarked) [Example 39], the IC50 was over 10 µM.
`CC(C)(C)C1CCc2nc3c(CCC(N)=O)c(C(N)=O)[nH]c3cc2C1` (centres unmarked) [Example 40]: the IC50 fell in the range of 1 to 10 µM.
As for `CC(C)(C)C1CCc2nc3c(CCC#N)c(C#N)[nH]c3cc2C1` (centres unmarked) [Example 41], the IC50 lay in the range of 1 to 10 µM.
Under `CCOC(=O)c1cc2nc3c(cc2n1C(C)=O)CC(C(C)(C)C)CC3` (centres unmarked) [Example 42] stands over 10 µM.
With `CC(C)(C)C1CCc2nc3cc(/C=N/NC(N)=S)[nH]c3cc2C1` (centres unmarked) [Example 43] the figure was over 10 µM.
As for `CC(=O)NC(Cc1c(C(N)=O)[nH]c2cc3c(nc12)CCC(C(C)(C)C)C3)C(N)=O` (centres unmarked) [Example 44], the IC50 was over 10 µM.
With `CCOC(=O)c1[nH]c2cc3c(nc2c1C)CCC(C(C)(C)C)C3` (centres unmarked) [Example 45] the figure was over 10 µM; with `Cc1c(C(N)=O)[nH]c2cc3c(nc12)CCC(C(C)(C)C)C3` (centres unmarked) [Example 46], over 10 µM; with `CCOC(=O)c1[nH]c2cc3c(nc2c1CC)CCC(C(C)(C)C)C3` (centres unmarked) [Example 47], over 10 µM.
With `CCc1c(C(N)=O)[nH]c2cc3c(nc12)CCC(C(C)(C)C)C3` (centres unmarked) [Example 48] the figure was 1 to 10 µM.
Under `CCOC(=O)c1[nH]c2cc3c(nc2c1CCCO)CCC(C(C)(C)C)C3` (centres unmarked) [Example 49] stands over 10 µM; under `CC(C)(C)C1CCc2nc3c(CCCO)c(C(N)=O)[nH]c3cc2C1` (centres unmarked) [Example 50], 0.1 to 1 µM; under `CCOC(=O)c1[nH]c2cc3c(nc2c1CCCN)CCC(C(C)(C)C)C3` (centres unmarked) [Example 51], over 10 µM.
As to `CC(C)(C)OC(=O)NCCCc1c(C(N)=O)[nH]c2cc3c(nc12)CCC(C(C)(C)C)C3` (centres unmarked) [Example 52], the IC50 was over 10 µM.
With `CC(C)(C)C1CCc2nc3c(CCCN)c(C(N)=O)[nH]c3cc2C1` (centres unmarked) [Example 53] the figure was over 10 µM; with `CCOC(=O)c1[nH]c2cc3c(nc2c1CC(O)CO)CCC(C(C)(C)C)C3` (centres unmarked) [Example 54], over 10 µM.
With `CC(C)(C)C1CCc2nc3c(CC(O)CO)c(C(N)=O)[nH]c3cc2C1` (centres unmarked) [Example 55] the figure was over 10 µM; with `CC(C)(C)C1CCc2nc3c(C#CCCO)c(C(N)=O)[nH]c3cc2C1` (centres unmarked) [Example 56], over 10 µM.
With `CC(C)(C)C1CCc2nc3c(CCCCO)c(C(N)=O)[nH]c3cc2C1` (centres unmarked) [Example 57] the figure was 0.1 to 1 µM; with `CC(C)(C)C1CCc2nc3c(C#CCCCO)c(C(N)=O)[nH]c3cc2C1` (centres unmarked) [Example 58], over 10 µM; with `CC(C)(C)C1CCc2nc3c(CCCCCO)c(C(N)=O)[nH]c3cc2C1` (centres unmarked) [Example 59], 1 to 10 µM.
For the compound `CCc1c(C(=O)NCCN)[nH]c2cc3c(nc12)CCC(C(C)(C)C)C3` (centres unmarked) [Example 60], the IC50 lay within 0.1 to 1 µM.
In the case of `CCOC(=O)c1[nH]c2cc3c(nc2c1NC(=O)COC(C)=O)CCC(C(C)(C)C)C3` (centres unmarked) [Example 62], the IC50 is over 10 µM.
On to `CC(C)(C)C1CCc2nc3c(NC(=O)CO)c(C(N)=O)[nH]c3cc2C1` (centres unmarked) [Example 63], for which the IC50 was 1 to 10 µM.
Under `CCOC(=O)c1[nH]c2cc3c(nc2c1NCCOC)CCC(C(C)(C)C)C3` (centres unmarked) [Example 64] stands over 10 µM; under `CCOC(=O)c1[nH]c2cc3c(nc2c1NCCO)CCC(C(C)(C)C)C3` (centres unmarked) [Example 65], over 10 µM; under `CC(C)(C)C1CCc2nc3c(NCCO)c(C(N)=O)[nH]c3cc2C1` (centres unmarked) [Example 66], 1 to 10 µM.
On to `CCOC(=O)c1[nH]c2cc3c(nc2c1NCCCO)CCC(C(C)(C)C)C3` (centres unmarked) [Example 67], for which the IC50 was over 10 µM.
Under `CC(C)(C)C1CCc2nc3c(NS(C)(=O)=O)c(C(N)=O)[nH]c3cc2C1` (centres unmarked) [Example 68] stands 1 to 10 µM.
Regarding `CCOC(=O)c1c(Cl)[nH]c2cc3c(nc12)CCC(C(C)(C)C)C3` (centres unmarked) [Example 69], the IC50 is over 10 µM.
As to `CCOC(=O)c1c[nH]c2cc3c(nc12)CCC(C(C)(C)C)C3` (centres unmarked) [Example 70], the IC50 was over 10 µM.
Take `COC(=O)c1c[nH]c2cc3c(nc12)CCC(C(C)(C)C)C3` (centres unmarked) [Example 71]: the IC50 was over 10 µM.
With `CC(C)(C)C1CCc2nc3c(C(=O)NCCO)c[nH]c3cc2C1` (centres unmarked) [Example 72] the figure was 1 to 10 µM; with `CC(C)(C)C1CCc2nc3c(C(=O)NCCN)c[nH]c3cc2C1` (centres unmarked) [Example 73], over 10 µM; with `CC(C)(C)C1CCc2nc3c(C(=O)NCCN4CCNCC4)c[nH]c3cc2C1` (centres unmarked) [Example 74], over 10 µM.
Under `CC(C)(C)C1CCc2nc3c(C(=O)NCc4cccnc4)c[nH]c3cc2C1` (centres unmarked) [Example 75] stands over 10 µM.
Under `C[C@@H](CO)NC(=O)c1c[nH]c2cc3c(nc12)CCC(C(C)(C)C)C3` (some centres unmarked) [Example 76] stands over 10 µM.
For `C[C@H](CO)NC(=O)c1c[nH]c2cc3c(nc12)CCC(C(C)(C)C)C3` (some centres unmarked) [Example 77], the IC50 is over 10 µM.
Under `C=CCNC(=O)c1c[nH]c2cc3c(nc12)CCC(C(C)(C)C)C3` (centres unmarked) [Example 78] stands over 10 µM; under `CC(C)(C)C1CCc2nc3c(C(=O)NN)c[nH]c3cc2C1` (centres unmarked) [Example 79], 0.1 to 1 µM.
`CC(C)(C)C1CCc2nc3c(C(=O)NCCCO)c[nH]c3cc2C1` (centres unmarked) [Example 80]: the IC50 fell in the range of 1 to 10 µM.
Turning to `CC(C)(C)C1CCc2nc3c(C(N)=O)c[nH]c3cc2C1` (centres unmarked) [Example 82], the IC50 lay within 0.1 to 1 µM.
Under `CC(C)(C)C1CCc2nc3cc[nH]c3cc2C1` (centres unmarked) [Example 83] stands under 0.1 µM.
With `CC(=O)Nc1c[nH]c2cc3c(nc12)CCC(C(C)(C)C)C3` (centres unmarked) [Example 84] the figure was 1 to 10 µM; with `CC(C)(C)C1CCc2nc3c(CC(N)=O)c(O)[nH]c3cc2C1` (centres unmarked) [Example 85], over 10 µM.
Under `COCCOCc1cc2nc3c(cc2[nH]1)CC(C(C)(C)C)CC3` (centres unmarked) [Example 86] stands 0.1 to 1 µM; under `COCc1cc2nc3c(cc2[nH]1)CC(C(C)(C)C)CC3` (centres unmarked) [Example 87], 0.1 to 1 µM.
For the compound `CCOCc1cc2nc3c(cc2[nH]1)CC(C(C)(C)C)CC3` (centres unmarked) [Example 88], the IC50 lay within 0.1 to 1 µM.
As to `CC(C)OCc1cc2nc3c(cc2[nH]1)CC(C(C)(C)C)CC3` (centres unmarked) [Example 89], the IC50 was over 10 µM.
For `CC(C)(C)C1CCc2nc3cc(C(=O)NCc4ccc5c(c4)OCO5)[nH]c3cc2C1` (centres unmarked) [Example 90], the IC50 was over 10 µM.
Under `CC(C)(C)C1CCc2nc3cc(C(=O)NCc4ccccn4)[nH]c3cc2C1` (centres unmarked) [Example 91] stands over 10 µM; under `CC(C)(C)C1CCc2nc3cc(C(=O)NCCN4CCNCC4)[nH]c3cc2C1` (centres unmarked) [Example 92], 1 to 10 µM; under `Cc1cc(C)n(C(=O)c2c[nH]c3cc4c(nc23)CCC(C(C)(C)C)C4)n1` (centres unmarked) [Example 93], over 10 µM.
Under `CC(C)(C)C1CCc2nc3c(C(=O)Nc4ncccn4)c[nH]c3cc2C1` (centres unmarked) [Example 94] stands over 10 µM; under `CC(C)(C)C1CCc2nc3cc(C(=O)NNc4ccccc4)[nH]c3cc2C1` (centres unmarked) [Example 95], over 10 µM; under `CC(C)(C)C1CCc2nc3cc(C(=O)Nc4nnn[nH]4)[nH]c3cc2C1` (centres unmarked) [Example 96], 0.1 to 1 µM.
With `CC(C)(C)C1CCc2nc3cc(C(=O)Nc4ccncc4)[nH]c3cc2C1` (centres unmarked) [Example 97] the figure was 0.1 to 1 µM.
Take `CCOC(=O)c1cc(NC(=O)c2cc3nc4c(cc3[nH]2)CC(C(C)(C)C)CC4)c[nH]1` (centres unmarked) [Example 98]: the IC50 is over 10 µM.
Under `CC(C)(C)C1CCc2nc3cc(C(=O)NNCCC#N)[nH]c3cc2C1` (centres unmarked) [Example 99] stands over 10 µM; under `CNNC(=O)c1cc2nc3c(cc2[nH]1)CC(C(C)(C)C)CC3` (centres unmarked) [Example 100], over 10 µM.

For orientation: IC50 means the concentration that gives 50% inhibition.
